In US8546404B2, “Compounds that are ERK inhibitors” (Merck Sharp & Dohme, priority 2005, dated 2013):
Several values for one entry are separate records, joined by “and”; a condition that tells them apart may be missing. Identical values can stand only once.

Target: fully phosphorylated, active Mouse ERK2 protein (Mus musculus (Mouse), UniProt P63085)
Assay: Active ERK2 Assay (IMAP format)
Type: biochemical
Conditions: AERK2 IC50
Description: Activated ERK2 activity was also determined in the IMAP assay format using the procedure outlined above. […] Reactions proceeded for 30 minutes before termination by addition of 60 μl IMAP detection beads in binding buffer. Plates were read as above after 30 minute binding equilibration.

Chain of fully phosphorylated, active Mouse ERK2 protein (P63085 whole entry): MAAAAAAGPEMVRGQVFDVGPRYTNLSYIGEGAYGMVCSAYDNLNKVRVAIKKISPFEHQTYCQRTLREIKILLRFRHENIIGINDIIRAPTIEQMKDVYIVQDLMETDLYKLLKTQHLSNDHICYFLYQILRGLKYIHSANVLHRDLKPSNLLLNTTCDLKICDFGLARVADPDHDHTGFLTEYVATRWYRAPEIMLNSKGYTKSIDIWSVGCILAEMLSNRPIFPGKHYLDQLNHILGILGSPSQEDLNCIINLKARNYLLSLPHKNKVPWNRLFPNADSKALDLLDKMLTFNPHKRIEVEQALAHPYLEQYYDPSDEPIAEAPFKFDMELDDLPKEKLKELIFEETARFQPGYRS

Compound | IC50 [nM]
O=C(Nc1ccc2[nH]nc(-c3ccncc3)c2c1)[C@@H]1CCN(CC(=O)N2CCN(c3ccc(-c4ncccn4)cc3)CC2)C1 [Example 6] | 0.8

Same assay, conditions: read-out: AERK2 IC50

Compound | IC50
C=CCC1(C(=O)Nc2ccc3[nH]nc(-c4ccncc4)c3c2)CCN(CC(=O)N2CCN(c3ccc(-c4cnccn4)cc3)CC2)C1 (centres unmarked) [Example 261] | 0.16 to 18 nM and 0.16 to 1.5 nM
C[C@@H]1CN(c2ccc(-c3ncccn3)cn2)CCN1C(=O)CN1CCC(C(=O)Nc2ccc3[nH]nc(-c4ccc(F)cc4)c3c2)C1 (some centres unmarked) [Example 100] | 0.16 to 18 nM and 0.16 to 1.5 nM
O=C(Nc1ccc2[nH]nc(-c3ccncc3)c2c1)[C@@H]1CCN(CC(=O)N2C[C@@H]3C[C@H]2CN3c2ccc(-c3ncc(F)cn3)cc2)C1 [Example 183] | 0.16 to 18 nM and 0.16 to 1.5 nM and 0.16 nM
CCc1cc(-c2n[nH]c3ccc(NC(=O)[C@]4(OC)CCN(CC(=O)N5CC=C(c6nccs6)CC5)C4)cc23)ccn1 [Example 802] | 0.16 to 18 nM
CO[C@@]1(C(=O)Nc2ccc3[nH]nc(-c4ccc(F)cc4)c3c2)CCN(CC(=O)N2CC=C(c3ccc(-c4ncccn4)s3)CC2)C1 [Example 737] | 0.16 to 18 nM
COCC1(C(=O)Nc2ccc3[nH]nc(-c4ccncc4)c3c2)CCN(CC(=O)N2C[C@@H]3C[C@H]2CN3c2ccc(-c3ncc(F)cn3)cc2)C1 (some centres unmarked) [Example 303] | 0.16 to 18 nM
CNC(=O)c1n[nH]c2ccc(NC(=O)[C@@H]3CCN(CC(=O)N4C[C@@H]5C[C@H]4CN5c4ccc(-c5ncccn5)cc4)C3)cc12 [Example 152] | 0.16 to 18 nM
CS[C@@]1(C(=O)Nc2ccc3[nH]nc(-c4ccc(F)cc4)c3c2)CCN(CC(=O)N2CCN(c3ccc(-c4ncccn4)cc3)CC2)C1 [Example 647] | 0.16 to 18 nM
O=C(CN1CCC(CF)(C(=O)Nc2ccc3[nH]nc(-c4ccncc4)c3c2)C1)N1CCN(c2nccs2)CC1 (centres unmarked) [Example 282] | 0.16 to 18 nM
O=C(Nc1ccc2[nH]nc(-c3ccc(F)cc3)c2c1)[C@@H]1CCN(CC(=O)N2CCN(c3ccc(-c4ncccn4)cc3)CC2)C1 (stereo in doubt) [Example 1, 1-{2-Oxo-2-[4-(4-pyrimidin-2-yl-phenyl)-piperazin-1-yl]-ethyl}-pyrrolidine-3-carboxylic acid [3-(4-fluoro-phenyl)-1H-indazol-5-yl]-amide] | 0.16 to 18 nM
C=CCC1(C(=O)Nc2ccc3[nH]nc(-c4ccncc4)c3c2)CCN(CC(=O)N2CCN(c3ccc(-c4ncc(F)cn4)cc3)CC2)C1 (centres unmarked) [Example 294] | 0.16 to 18 nM
O=C(CN1CCC(CF)(C(=O)Nc2ccc3[nH]nc(-c4ccc(F)cc4)c3c2)C1)N1C[C@@H]2C[C@H]1CN2c1ccc(-c2ncccn2)cc1 (some centres unmarked) [Example 251] | 0.16 to 18 nM
COc1cc(C2=CCN(C(=O)CN3CC[C@@](OC)(C(=O)Nc4ccc5[nH]nc(-c6ccnc(C7CC7)c6)c5c4)C3)CC2)ccc1-c1ncccn1 [Example 673] | 0.16 to 18 nM
O=C(Nc1ccc2[nH]nc(-c3ccncc3)c2c1)[C@@H]1CCN(CC(=O)N2CCN(c3ccc(-c4ncc(F)cn4)cc3)CC2)C1 [Example 186] | 0.16 to 18 nM and 0.16 to 1.5 nM and 0.78 nM
CO[C@@]1(C(=O)Nc2ccc3[nH]nc(-c4ccc(F)c(CO)c4)c3c2)CCN(CC(=O)N2CCC(c3ccc(-c4ncccn4)cc3)CC2)C1 [Example 794] | 0.16 to 18 nM
COCCOc1ccc(-c2n[nH]c3ccc(NC(=O)[C@]4(OC)CCN(CC(=O)N5CC=C(c6ncc(-c7ncccn7)s6)CC5)C4)cc23)cc1 [Example 765] | 0.16 to 18 nM
CO[C@@]1(C(=O)Nc2ccc3[nH]nc(-c4cc[n+]([O-])c(C)c4)c3c2)CCN(CC(=O)N2CC=C(c3ccc(-c4ncccn4)cc3)CC2)C1 [Example 666] | 0.16 to 18 nM
CNC(=O)c1n[nH]c2ccc(NC(=O)[C@@H]3CCN(CC(=O)N4CC=C(c5nccs5)CC4)C3)cc12 [Example 168] | 0.16 to 18 nM
CO[C@@]1(C(=O)Nc2ccc3[nH]nc(-c4ccnc(C(F)(F)F)c4)c3c2)CCN(CC(=O)N2CC=C(c3ccc(-c4ncccn4)cc3F)CC2)C1 [Example 682] | 0.16 to 18 nM
CO[C@@]1(C(=O)Nc2ccc3[nH]nc(-c4ccc(F)cc4)c3c2)CCN(CC(=O)N2CCN(c3cc(F)c(-c4ncccn4)cc3F)CC2)C1 [Example 663] | 0.16 to 18 nM
CO[C@@]1(C(=O)Nc2ccc3[nH]nc(-c4ccc(F)c(OCCO)c4)c3c2)CCN(CC(=O)N2CC=C(c3ccc(-c4ncccn4)cc3)CC2)C1 [Example 755] | 0.16 to 18 nM
CCNc1nnc(-c2ccc(C3CCN(C(=O)CN4CC[C@@](OC)(C(=O)Nc5ccc6[nH]nc(-c7ccc(F)cc7)c6c5)C4)CC3)cc2)o1 (stereo in doubt) [Example 623, 1-(2-{4-[4-(5-Ethylamino-[1,3,4]oxadiazol-2-yl)-phenyl]-piperidin-1-yl}-2-oxo-ethyl)-3-methoxy-pyrrolidine-3-carboxylic acid [3-(4-fluoro-phenyl)-1H-indazol-5-yl]-amide] | 0.16 to 18 nM
CO[C@@]1(C(=O)Nc2ccc3[nH]nc(-c4ccc(F)cc4)c3c2)CCN(CC(=O)N2CC=C(c3ccc(-c4ncccn4)cc3F)CC2)C1 [Example 606] | 0.16 to 18 nM
COCc1cc(-c2n[nH]c3ccc(NC(=O)[C@]4(OC)CCN(CC(=O)N5CC=C(c6ccc(-c7ncccn7)cc6F)CC5)C4)cc23)ccc1F [Example 747] | 0.16 to 18 nM

The next lines start with the values.

IC50 | Compound
0.16 to 18 nM | Cc1cnc(-c2ccc(N3CCN(C(=O)CN4CCC(C(=O)Nc5ccc6[nH]nc(-c7ccc(F)cc7)c6c5)C4)[C@H](C)C3)cc2)nc1 (some centres unmarked) [Example 120]
0.16 to 18 nM | COCCOc1ccc(-c2n[nH]c3ccc(NC(=O)[C@]4(OC)CCN(CC(=O)N5CC=C(c6ccc(-c7ncccn7)cc6)CC5)C4)cc23)cc1F [Example 749]
0.16 to 18 nM | CO[C@@]1(C(=O)Nc2ccc3[nH]nc(-c4ccnc(C)c4)c3c2)CCN(CC(=O)N2CCC(c3ccc(-c4ncccn4)cc3)CC2)C1 [Example 789]
0.16 to 18 nM | COCC1(C(=O)Nc2ccc3[nH]nc(-c4ccncc4)c3c2)CCN(CC(=O)N2CCN(c3ccc(-c4ncc(F)cn4)cc3)CC2)C1 (centres unmarked) [Example 302]
0.16 to 18 nM | C=CCC1(C(=O)Nc2ccc3[nH]nc(-c4ccncc4)c3c2)CCN(CC(=O)N2C[C@@H]3C[C@H]2CN3c2ccc(-c3ncc(F)cn3)cc2)C1 (some centres unmarked) [Example 271]
0.16 to 18 nM | CON(C(=O)[C@@H]1CCN(CC(=O)N2CC=C(c3ccc(-c4ncccn4)cc3)CC2)C1)c1ccc2[nH]nc(-c3ccncc3)c2c1 [Example 611]
0.16 to 18 nM | CCCCNC(=O)c1n[nH]c2ccc(NC(=O)[C@@H]3CCN(CC(=O)N4CCN(c5ccc(-c6ncccn6)cc5)CC4)C3)cc12 [Example 86]
0.16 to 18 nM | COc1cc(C2CCN(C(=O)CN3CC[C@@](OC)(C(=O)Nc4ccc5[nH]nc(-c6ccnc(C7CC7)c6)c5c4)C3)CC2)ccc1-c1ncccn1 [Example 672]
0.16 to 18 nM | COCCOc1cc(-c2n[nH]c3ccc(NC(=O)[C@]4(OC)CCN(CC(=O)N5CC=C(c6ccc(-c7ncccn7)cc6)CC5)C4)cc23)ccc1F [Example 741]
0.16 to 18 nM | C=Cc1cnc(N2C[C@@H]3C[C@H]2CN3C(=O)CN2CC[C@@H](C(=O)Nc3ccc4[nH]nc(-c5ccncc5)c4c3)C2)nc1 [Example 250]
0.16 to 18 nM | Cc1cnc(-c2ccc(N3CCN(C(=O)CN4CCC(NC=O)(C(=O)Nc5ccc6[nH]nc(-c7ccc(F)cc7)c6c5)C4)[C@H](C)C3)cc2)nc1 (stereo in doubt) [Example 362, 3-Formylamino-1-(2-{2-methyl-4-[4-(5-methyl-pyrimidin-2-yl)-phenyl]-piperazin-1-yl}-2-oxo-ethyl)-pyrrolidine-3-carboxylic acid [3-(4-fluoro-phenyl)-1H-indazol-5-yl]-amide]
0.16 to 18 nM | COCC1(C(=O)Nc2ccc3[nH]nc(-c4ccncc4)c3c2)CCN(CC(=O)N2CCN(c3ccc(-c4ncccn4)cc3)CC2)C1 (centres unmarked) [Example 264]
0.16 to 18 nM | CO[C@@]1(C(=O)Nc2ccc3[nH]nc(-c4ccc(F)cc4)c3c2)CCN(CC(=O)N2CC=C(c3ccc(-c4ncc(F)cn4)c(F)c3)CC2)C1 [Example 661]
0.16 to 18 nM | O=C(Nc1ccc2[nH]nc(-c3ccncc3)c2c1)[C@@H]1CCN(CC(=O)N2CCc3ncccc3C2)C1 [Example 333]
0.16 to 18 nM | CCOC1(C(=O)Nc2ccc3[nH]nc(-c4ccnc(C)c4)c3c2)CCN(CC(=O)N2CCN(c3ccc(-c4ncccn4)cc3)CC2)C1 (centres unmarked) [Example 343]
0.16 to 18 nM | COCCOc1ccc(-c2n[nH]c3ccc(NC(=O)[C@]4(OC)CCN(CC(=O)N5CC=C(c6ccc(-c7ncccn7)cc6F)CC5)C4)cc23)cc1 [Example 767]
0.16 to 18 nM | CO[C@@]1(C(=O)Nc2ccc3[nH]nc(-c4cc[n+]([O-])c(C5CC5)c4)c3c2)CCN(CC(=O)N2CC=C(c3ccc(-c4ncccn4)cc3)CC2)C1 [Example 670]
0.16 to 18 nM | C#CCC1(C(=O)Nc2ccc3[nH]nc(-c4ccncc4)c3c2)CCN(CC(=O)N2CCN(c3ccc(-c4ncccn4)cc3)CC2)C1 (centres unmarked) [Example 292]
0.16 to 18 nM | CC(=O)N/N=C(\C)C1(C(=O)Nc2ccc3[nH]nc(-c4ccc(F)cc4)c3c2)CCN(CC(=O)N2CCN(c3ccc(-c4ncccn4)cn3)C[C@H]2C)C1 (stereo in doubt) [Example 358, 3-[1-(Acetyl-hydrazono)-ethyl]-1-{2-[2-methyl-4-(5-pyrimidin-2-yl-pyridin-2-yl)-piperazin-1-yl]-2-oxo-ethyl}-pyrrolidine-3-carboxylic acid [3-(4-fluoro-phenyl)-1H-indazol-5-yl]-amide]
0.16 to 18 nM | COCC1(C(=O)Nc2ccc3[nH]nc(-c4ccncc4)c3c2)CCN(CC(=O)N2CCN(c3ccc(-c4ncccn4)cn3)C[C@H]2C)C1 (some centres unmarked) [Example 304]
0.16 to 18 nM | CS[C@@]1(C(=O)Nc2ccc3[nH]nc(-c4ccnc(C5CC5)c4)c3c2)CCN(CC(=O)N2CC=C(c3ccc(-c4ncccn4)cc3)CC2)C1 [Example 639]
0.16 to 18 nM | CS(=O)(=O)[C@@]1(C(=O)Nc2ccc3[nH]nc(-c4ccnc(C5CC5)c4)c3c2)CCN(CC(=O)N2CCC(c3ccc(-c4ncccn4)cc3)CC2)C1 [Example 635]
0.16 to 18 nM | CO[C@@]1(C(=O)Nc2ccc3[nH]nc(-c4ccnc(C(F)F)c4)c3c2)CCN(CC(=O)N2CCC(c3ccc(-c4ncccn4)cc3)CC2)C1 [Example 786]
0.16 to 18 nM | CSC1(C(=O)Nc2ccc3[nH]nc(-c4ccc(F)cc4)c3c2)CCN(CC(=O)N2CCN(c3ccc(-c4ncccn4)cc3)CC2)C1 (centres unmarked) [Example 338]
0.16 to 1.5 nM | CO[C@@]1(C(=O)Nc2ccc3[nH]nc(-c4ccc(F)c(CO)c4)c3c2)CCN(CC(=O)N2CC=C(c3ccc(-c4ncccn4)cc3)CC2)C1 [Example 787]
